How the values were obtained:
RAW cells = assay: iNOS and IL-1β mRNA expression by RT-PCR after BAL treatment; format: cell-based; conditions: RAW cells treated with SNO-OE-BAL in the presence of the NF-κB inhibitor
Experimental: RAW cells were treated with BAL prepared from overexpressing mice, either with or without prior transnitrosation with L-SNOC.
RAW cells were treated with OE-BAL or SNO-OE-BAL in the presence and absence of the NF-κB inhibitor caffeic acid phenethyl ester (CAPE).

SP-D multimer = biological target: T1, SP-D multimer (Rattus norvegicus, UniProt P35248); assay: SP-D multimer disruption, native gel electrophoresis and Western blot; format: biochemical; conditions: for disruption of the SP-D multimer: RrSP-D, 25 mM, 37° C., 20 minutes, native gel
T1 sequence (P35248 20-374): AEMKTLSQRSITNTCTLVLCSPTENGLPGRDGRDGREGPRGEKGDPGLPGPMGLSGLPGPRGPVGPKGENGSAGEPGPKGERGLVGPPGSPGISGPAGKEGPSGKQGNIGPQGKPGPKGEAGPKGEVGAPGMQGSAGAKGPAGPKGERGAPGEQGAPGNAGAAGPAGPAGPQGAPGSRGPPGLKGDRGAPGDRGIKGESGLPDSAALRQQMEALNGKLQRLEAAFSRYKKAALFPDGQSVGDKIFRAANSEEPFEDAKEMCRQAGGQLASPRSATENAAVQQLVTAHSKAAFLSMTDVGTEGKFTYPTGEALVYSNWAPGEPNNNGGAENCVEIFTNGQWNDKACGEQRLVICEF

RrSP-D = biological target: T2, RrSP-D (Rattus norvegicus, UniProt P35248); assay: SP-D trimer/structure disruption, SDS-PAGE and Western blot; format: biochemical; conditions: for disruption of SP-D structure (specificity): 50 ng RrSP-D, equimolar concentration, non-reducing denaturing SDS-PAGE
T2 sequence (P35248 20-374): T1 sequence (P35248 20-374)
Experimental: FIG. 12A provides a hydrophobicity plot of the designed peptide CJ-1 (SEQ ID NO: 1). CJ-1 was directly derived from SP-D sequence within which cysteine residues are located in the hydrophobic pocket. RrSP-D (50 ng) was incubated with or without CJ-1 (10 mM) or DTT (10 mM) at 37° C. for 20 minutes (FIG. 12B). […] RrSP-D (50 ng) was incubated with different doses of CJ-1 (0.01-10 mM) at 37° C. for 20 minutes.
By matching the reduced cysteines within the peptide to those in the target protein one can specifically disrupt structure. Using 50 ng of RrSP-D the effect of an equimolar concentration of CJ-1, targeted peptide; CJ-2, a scrambled version of CJ-1 with no hydrophobic pocket; or L-cysteine was analyzed. Following incubation SP-D structure was assessed by non-reducing denaturing SDS-PAGE.

RAW 264.7 cells [1] = assay: Real-time qPCR of pro-inflammatory mediator mRNA (IL-1β, iNOS, ptgs2, CCL2); format: cell-based; conditions: 10 μM, 3 hours, without LPS
Experimental: Raw 264.7 cells were incubated with or without CJ-1 (10 μM) or SNO-CJ-1 (10 μM) for 3 hours (FIG. 17A) or incubated with or without CJ-1 (10 μM) or SNO-CJ-1 (10 μM) for 20 minutes and treated with LPS (1 ng/mL) for an additional 3 hours (FIG. 17B). The cells were lysed and total RNA was isolated and subjected to real-time qPCR for mRNA expression of IL-1β, iNOS, ptgs2 and CCL2. SNO-CJ-1 inhibits mRNA expression of pro-inflammatory mediators.

RAW 264.7 cells [2] = assay: Chemotactic activity, Boydin Chamber; format: cell-based; conditions: SNO-SP-D samples treated with 1 μM or 10 μM
Experimental: (§1) RrSP-D was incubated with 100 μM of nitric oxide for 30 minutes to generate SNO-SP-D (FIG. 14A). The resultant protein was incubated with CJ-1 (1 μM or 10 μM). The protein samples were subjected to Biotin-Switch analysis to determine SNO-SP-D content. Lane 1 untreated RrSP-D; Lane 2 NO-treated RrSP-D; Lane 3 NO-treated RrSP-D+1 μM CJ-1; Lane 4 NO-treated RrSP-D+10 μM CJ-1. […] The chemoattractive activity to RAW 264.7 cells was assayed using a Boydin Chamber.

SNO-SP-D = biological target: T3, SNO-SP-D (Rattus norvegicus, UniProt P35248); assay: Biotin-Switch analysis of SNO-SP-D content; format: biochemical; conditions: NO-treated RrSP-D incubated with 1 μM or 10 μM
T3 sequence (P35248 20-374): T1 sequence (P35248 20-374)
Experimental: as §1

HIV X4 strain NL4-3 = assay: HIV reverse transcriptase (RT) assay in supernatants of infected Jurkat T cells; format: cell-based; conditions: NL4-3 preincubated 1 hour at 37° C.; Jurkat T cells infected 16 hours; supernatants day 6 postinfection
Experimental: The HIV X4 strain NL4-3 was preincubated without (control) or with peptide CJ-2 which was a peptide with two cysteines in the hydrophilic domain, peptide CJ-3 which was derived from gp120, or peptide CJ-4 which was derived from gp41 for 1 hour at 37° C. at the concentrations indicated. The Jurkat T cells (0.5×10^6 cell/ml) were infected by NL4-3 (30 ng/ml) for 16 hours and washed. The supernatants at day 6 postinfection was collected and subjected to HIV reverse transcriptase (RT) assay. The data are shown represent the mean±SD of duplicate cultures (FIG. 15D).

HIV gp120 LAV = HIV gp120 LAV (Human immunodeficiency virus type 1 group M subtype B, UniProt P03377); conditions: preincubated, denatured, SDS PAGE, Coomassie blue
Experimental: Peptides were designed to disrupt HIV gp120 formation. […] HIV gp120 LAV preincubated without (lane 1) or with DTT (lane 2), L-cysteine (lane 3), CJ-3 (lane 4) CJ-4 (lane 5) or CJ-3 and CJ-4 (lane 6) was denatured and subjected to SDS PAGE gel electrophoresis. The resulted proteins were visualized by Coomassie blue staining (FIG. 15C).

Compound	disruption of the SP-D multimer (SP-D multimer)	disruption of SP-D structure (specificity) (RrSP-D)	inhibition of HIV (RT activity in supernatants) (HIV X4 strain NL4-3)	disruption of the structure of HIV gp120 LAV (HIV gp120 LAV)	also measured
O=C(/C=C/c1ccc(O)c(O)c1)OCCc1ccccc1 [CAPE, caffeic acid phenethyl ester]	–	–	–	–	effect on SNO-OE-BAL mediated increase in iNOS expression (RAW cells): completely abrogated the increase in iNOS expression
N[C@@H](CSN=O)C(=O)O [L-SNOC, L-S-nitroso-cysteine]	capable of disrupting the SP-D multimer at high concentration	–	–	–	disruption of native SP-D multimers (SP-D multimer; BAL from SP-D overexpressing mice or 0.2 μM recombinant SP-D treated with L-SNOC, native electrophoresis, Western blot): disruption of the native multimers to dodecamers and trimers
N[C@@H](CS)C(=O)O [L-cysteine, reference compound]	capable of disrupting the SP-D multimer at high concentration	Only CJ-1 is capable of disrupting SP-D structure	–	–	–
AEMKSLSQRSVPNTCTLVMCSPTE [CJ-1]	–	capable of disrupting SP-D structure	–	–	disruption of SP-D, dose dependence (RrSP-D; RrSP-D 50 ng, 0.01-10 mM, 37° C., 20 minutes): disrupts SP-D in a dose-dependent manner; disruption of SP-D trimers (RrSP-D; RrSP-D 50 ng, 10 mM, 37° C., 20 minutes, SDS PAGE, Western blot): disrupts SP-D trimers; induction of transcription of inflammatory genes (RAW 264.7 cells [1]): capable of inducing transcription of inflammatory genes within macrophages; SNO-SP-D induced RAW 264.7 cell migration (RAW 264.7 cells [2]): inhibits the ability of SNO-SP-D to induce RAW 264.7 cell migration; SNO-SP-D content (S-nitrosothiol) (SNO-SP-D): depleted S-nitrosothiol from SNO-SP-D
LVWEDLRNLCLFSYRLLR [CJ-4]	–	–	inhibited HIV	disrupted the structure of HIV gp120 LAV	–
VPVWKDAETTLFCASDAK [CJ-3]	–	–	inhibited HIV	disrupted the structure of HIV gp120 LAV	–
